SMILES strings stand for the structures.

The target in one assay is T1, Recombinant IKKα (Homo sapiens, UniProt O15111).
T1 construct: purchased Millipore, Dundee, UK
T1 sequence (O15111 1-745): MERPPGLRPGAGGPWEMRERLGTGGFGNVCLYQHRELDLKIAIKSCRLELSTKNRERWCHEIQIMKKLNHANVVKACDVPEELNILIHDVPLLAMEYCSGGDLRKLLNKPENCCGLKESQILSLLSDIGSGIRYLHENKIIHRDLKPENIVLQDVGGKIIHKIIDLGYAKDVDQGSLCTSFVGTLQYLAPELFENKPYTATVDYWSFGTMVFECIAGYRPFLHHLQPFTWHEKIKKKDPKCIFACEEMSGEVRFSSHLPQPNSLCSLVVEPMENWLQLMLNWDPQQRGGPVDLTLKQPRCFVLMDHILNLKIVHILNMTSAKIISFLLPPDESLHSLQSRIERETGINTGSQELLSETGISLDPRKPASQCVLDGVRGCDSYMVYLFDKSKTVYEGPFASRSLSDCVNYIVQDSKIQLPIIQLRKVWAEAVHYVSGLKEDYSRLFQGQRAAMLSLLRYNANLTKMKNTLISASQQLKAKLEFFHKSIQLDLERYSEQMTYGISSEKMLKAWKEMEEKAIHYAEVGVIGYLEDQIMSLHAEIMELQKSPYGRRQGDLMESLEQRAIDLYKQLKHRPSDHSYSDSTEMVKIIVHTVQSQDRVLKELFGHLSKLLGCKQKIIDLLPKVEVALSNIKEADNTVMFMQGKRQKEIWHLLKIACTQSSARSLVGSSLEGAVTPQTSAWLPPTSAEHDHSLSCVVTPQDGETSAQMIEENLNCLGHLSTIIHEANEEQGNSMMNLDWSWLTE
Kind of assay: DELFIA IKKα kinase assay (apparent Ki, Cheng-Prusoff). Format: biochemical. To be noted: non-italicised figure: DELFIA assay. The method, then:
(§1) IKKα and IKKβ inhibitory activity was determined using three different assays: a dissociation enhanced ligand fluorescent immunoassay (DELFIA) based on the protocol of HTScan™ IKKβ Kinase Assay (Cell Signaling Technology, USA); an Adapta IKKα assay (performed by Life Technologies); a Z′-LYTE™ IKKβ assay (performed by Life Technologies).
(§2) Recombinant IKKα or IKKβ, 37 nM, (Millipore, Dundee, UK) was incubated with IηB-α (Ser32) (New England Biolabs, Hitchin, UK) biotinylated peptide substrate (0.375 μM) and 40 μM ATP in assay buffer (40 mM Tris-HCl (pH 7.5), 20 mM MgCl2, EDTA 1 mM, DTT 2 mM and BSA 0.01 mg/ml) in a V-well 96-well plate in the presence and absence of test compound. The assay plate was incubated for 60 minutes at 30° C. after which the kinase reaction was quenched by the addition of 50 mM EDTA, pH8. The resulting mixture was transferred to a streptavidin coated 96-well plate (Perkin Elmer, Beaconsfield, UK) and incubated for 1 hour at 30° C. to immobilise the substrate peptide. After three washes with wash buffer (0.01 M phosphate buffered saline (PBS), 0.05% Tween −20, pH 7.4) a primary antibody against the phosphorylated substrate (phospho-IηB-a) (Ser32/36) (5A5) Mouse mAb (New England Biolabs, Hitchin, UK) (1:1000 dilution with 1% bovine serum albumin (BSA) in wash buffer) was added and incubated at 37° C. for 2 h.
(§3) After a further three washes, a secondary europiated antibody (Eu-N1 labelled anti-mouse IgG, (Perkin Elmer, Beaconsfield, UK) diluted 1:500 in 1% BSA/wash buffer) was added and incubated at 30° C. for 30 minutes. After a further five washes, DELFIA enhancement solution—(Perkin Elmer, Beaconsfield UK) was added and allowed to incubate for 10 min at room temperature, protected from light, to facilitate the chemifluorescent detection. The relative fluorescence units (RFU) signal were measured on a Wallac Victor 1420 multilabel counter (Perkin Elmer, Beaconsfield, UK), in time-resolved fluorescence mode. The counter was set at an excitation wavelength of 340 nm with a 400 μs delay before detecting emitted light at 615 nm. The apparent Ki of the […] was calculated for each compound using the Cheng-Prusoff Equation.
(§4) The IKKα and IKKβ figures quoted in non-italicised form are from the DELFIA assay described above.

In another assay the target is T2, Recombinant IKKβ (Homo sapiens, UniProt O14920).
T2 construct: purchased Millipore, Dundee, UK
T2 sequence (O14920 1-756): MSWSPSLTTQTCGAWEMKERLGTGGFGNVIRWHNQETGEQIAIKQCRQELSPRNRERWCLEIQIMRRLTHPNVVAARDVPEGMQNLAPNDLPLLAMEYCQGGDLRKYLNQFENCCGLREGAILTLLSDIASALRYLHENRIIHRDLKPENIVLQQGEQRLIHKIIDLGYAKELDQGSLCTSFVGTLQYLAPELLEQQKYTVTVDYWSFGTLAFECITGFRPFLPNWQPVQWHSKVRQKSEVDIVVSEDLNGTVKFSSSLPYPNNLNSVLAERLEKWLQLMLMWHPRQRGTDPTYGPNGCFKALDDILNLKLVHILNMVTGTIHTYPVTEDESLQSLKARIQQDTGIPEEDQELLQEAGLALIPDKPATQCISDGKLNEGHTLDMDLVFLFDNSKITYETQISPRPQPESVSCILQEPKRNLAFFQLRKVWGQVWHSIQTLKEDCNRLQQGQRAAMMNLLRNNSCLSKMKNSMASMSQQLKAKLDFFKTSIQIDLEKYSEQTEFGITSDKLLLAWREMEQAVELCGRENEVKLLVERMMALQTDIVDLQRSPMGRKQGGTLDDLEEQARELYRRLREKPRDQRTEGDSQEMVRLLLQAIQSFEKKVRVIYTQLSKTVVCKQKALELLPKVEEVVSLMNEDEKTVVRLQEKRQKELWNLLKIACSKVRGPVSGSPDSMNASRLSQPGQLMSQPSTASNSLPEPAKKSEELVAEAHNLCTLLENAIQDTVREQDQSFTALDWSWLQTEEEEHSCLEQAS
Kind of assay: DELFIA IKKβ kinase assay (apparent Ki, Cheng-Prusoff). Format: biochemical. To be noted: non-italicised figure: DELFIA assay. The method, then:
as §1, §2, §3, §4

In the case of `Nc1n[nH]c2ccc(-c3ccnc(NCC4CC4)c3)cc12` [Example 15, 5-(2-((Cycipropylmethyl)amino)pyridine-4-yl)-1H-indazol-3-amine], the figures for the Ki at Recombinant IKKα and on Recombinant IKKβ were 171 nM and 796 nM, respectively.
The matching figures for `CC(C)CCNc1cc(-c2ccc3[nH]nc(N)c3c2)ccn1` [Example 16, 5-(2-(Isopentylamino)pyridin-4-yl)-1H-indazol-3-amine]: 65 nM and 838 nM.
On the same counts, the results for `CCCCCCNc1cc(-c2ccc3[nH]nc(N)c3c2)ccn1` [Example 17, 5-(2-(Hexylamino)pyridine-4-yl)-1H-indazol-3-amine] are 114 nM and 1340 nM.
For the compound `Nc1n[nH]c2ccc(-c3ccnc(NC4CCCCC4)c3)cc12` [Example 18, 5-(2-(Cyclohexylamino)pyridine-4-yl)-1H-indazol-3-amine], the Ki at Recombinant IKKα is 571 nM; at Recombinant IKKβ, greater than 10000 nM.
Regarding `C[C@H]1CC[C@H](Nc2cc(-c3ccc4[nH]nc(N)c4c3)ccn2)CC1` [Example 19, 5-{2-[(Trans-4-methylcyclohexyl)amino]pyridin-4-yl}-1H-indazol-3-amine], the Ki at Recombinant IKKα was 170 nM; on Recombinant IKKβ, greater than 10000 nM.
On the same counts, the results for `Nc1n[nH]c2ccc(-c3ccnc(NCCO)c3)cc12` [Example 20, 2-((4-(3-Amino-1H-indazol-5-yl)pyridine-2-yl)amino)ethan-1-ol] are 46 nM and 630 nM.
On the same counts, the results for `Nc1n[nH]c2ccc(-c3ccnc(NCCCO)c3)cc12` [Example 21, 3-((4-(3-Amino-1H-indazol-5-yl)pyridine-2-yl)amino)propan-1-ol] are 15 nM and 796 nM.
The matching figures for `Nc1n[nH]c2ccc(-c3ccnc(NCCCCO)c3)cc12` [Example 22, 4-(4-(3-Amino-1H-indazol-5-yl)pyridin-2-ylamino)butan-1-ol]: 22 nM and 1470 nM.
On to `Nc1n[nH]c2ccc(-c3ccnc(NCCCCCO)c3)cc12` [Example 23], for which the Ki worked out at 33 nM on Recombinant IKKα and 335 nM at Recombinant IKKβ.
On the same counts, the results for `Nc1n[nH]c2ccc(-c3ccnc(N[C@H]4CC[C@H](O)CC4)c3)cc12` [Example 24, 5-{2-[(Trans-4-hydroxycyclohexyl)amino]pyridin-4-yl}-1H-indazol-3-amine] are 100 nM and greater than 10000 nM.
In the case of `COCCNc1cc(-c2ccc3[nH]nc(N)c3c2)ccn1` [Example 25, 5-(2-((2-Methoxyethyl)amino)pyridine-4-yl)-1H-indazol-3-amine], the Ki on Recombinant IKKα was 221 nM; on Recombinant IKKβ, greater than 10000 nM.
The matching figures for `COCCCNc1cc(-c2ccc3[nH]nc(N)c3c2)ccn1` [Example 26, 5-(2-((3-Methoxypropyl)amino)pyridine-4-yl)-1H-indazol-3-amine]: 34 nM and 754 nM.
On the same counts, the results for `CC(C)OCCCNc1cc(-c2ccc3[nH]nc(N)c3c2)ccn1` [Example 27, 5-(2-((3-Isopropoxypropyl)amino)pyridin-4-yl)-1H-indazol-3-amine] are 76 nM and 2510 nM.
On the same counts, the results for `Nc1n[nH]c2ccc(-c3ccnc(NCCCO)n3)cc12` [Example 28, 3-((4-(3-Amino-1H-indazol-5-yl)pyrimidin-2-yl)amino)propan-1-ol] are 65 nM and 460 nM.
For `CN(CCCO)c1cc(-c2ccc3[nH]nc(N)c3c2)ccn1` [Example 29, 3-((4-(3-Amino-1H-indazol-5-yl)pyridin-2-yl)(methyl)amino)propan-1-ol], the values for the Ki at Recombinant IKKα and at Recombinant IKKβ were 1900 nM and greater than 10000 nM, respectively.
On the same counts, the results for `Nc1n[nH]c2ccc(-c3ccnc(NCCN4CCOCC4)c3)cc12` [Example 30, 5-(2-((2-Morpholinoethyl)amino)pyridine-4-yl)-1H-indazol-3-amine] are 340 nM and 377 nM.
Consider `Nc1n[nH]c2ccc(-c3ccnc(NCCN4CCCCC4)c3)cc12` [Example 31, 5-(2-((2-(Piperidin-1-yl)ethyl)amino)pyridine-4-yl)-1H-indazol-3-amine], for which the results for the Ki at Recombinant IKKα and on Recombinant IKKβ were 495 nM and greater than 10000 nM, respectively.
On the same counts, the results for `CNCCCNc1cc(-c2ccc3[nH]nc(N)c3c2)ccn1` [Example 32, N^1-(4-(3-Amino-1H-indazol-5-yl)pyridin-2-yl)-N^3-methylpropane-1,3-diamine] are 340 nM and greater than 10000 nM.
With `Nc1n[nH]c2ccc(-c3ccnc(NC(=O)C4CC4)c3)cc12` [Example 33, N-[4-(3-Amino-1H-indazol-5-yl)pyridin-2-yl]cyclopropanecarboxamide], the results for the Ki at Recombinant IKKα and on Recombinant IKKβ were 76 nM and 159 nM, respectively.
Consider `Nc1n[nH]c2ccc(-c3ccnc(NC(=O)c4ccccc4)c3)cc12` [Example 34, N-(4-(3-Amino-1H-indazol-5-yl)pyridin-2-yl)benzamide], for which the values for the Ki at Recombinant IKKα and on Recombinant IKKβ were 26 nM and 350 nM, respectively.
As for `CCOC(=O)Nc1cc(-c2ccc3[nH]nc(N)c3c2)ccn1` [Example 35, Ethyl (4-(3-amino-1H-indazol-5-yl)pyridin-2-yl)carbamate], the results for the Ki at Recombinant IKKα and at Recombinant IKKβ were 15 nM and 470 nM, respectively.
In the case of `CCNC(=O)Nc1cc(-c2ccc3[nH]nc(N)c3c2)ccn1` [Example 36, 1-(4-(3-Amino-1H-indazol-5-yl)pyridine-2-yl)-3-ethylurea], the figures for the Ki at Recombinant IKKα and on Recombinant IKKβ were 20 nM and 838 nM, respectively.
On the same counts, the results for `CCCNC(=O)Nc1cc(-c2ccc3[nH]nc(N)c3c2)ccn1` [Example 37, 1-(4-(3-Amino-1H-indazol-5-yl)pyridin-2-yl)-3-propylurea] are 70 nM and 4100 nM.
As for `CC(C)CCNC(=O)Nc1cc(-c2ccc3[nH]nc(N)c3c2)ccn1` [Example 38, 1-(4-(3-Amino-1H-indazol-5-yl)pyridin-2-yl)-3-isopentylurea], the results for the Ki on Recombinant IKKα and at Recombinant IKKβ were 100 nM and 4200 nM, respectively.
With `Nc1n[nH]c2ccc(-c3ccnc(NC(=O)NC4CCCC4)c3)cc12` [Example 39, 1-(4-(3-Amino-1H-indazol-5-yl)pyridin-2-yl)-3-cyclopentylurea], the Ki on Recombinant IKKα is 114 nM; at Recombinant IKKβ, 970 nM.

Values taken from patent publication US20250304576A1 (Cancer Research Technology Limited, priority 2022, published 2025).
